Settings: Fluid (supercritical or subcritical phases), vibrating tube

CCCCCO [pentan-1-ol]
Settings	mass density [kg/m3]
312.96 K, 512 kPa	799.65
312.96 K, 1022 kPa	800.04
312.96 K, 1998 kPa	800.77
312.96 K, 3005 kPa	801.53
312.96 K, 4003 kPa	802.28
312.96 K, 5002 kPa	803.02
312.96 K, 6018 kPa	803.76
312.96 K, 6994 kPa	804.49
312.96 K, 8008 kPa	805.21
312.96 K, 9005 kPa	805.93
312.96 K, 10008 kPa	806.66
312.96 K, 11008 kPa	807.37
312.96 K, 12000 kPa	808.07
312.96 K, 13024 kPa	808.78
312.96 K, 13987 kPa	809.45
312.96 K, 15014 kPa	810.14
312.96 K, 15991 kPa	810.8
312.96 K, 17019 kPa	811.48
312.96 K, 17991 kPa	812.12
312.96 K, 19007 kPa	812.79
312.96 K, 19992 kPa	813.44
312.96 K, 21031 kPa	814.1
312.96 K, 22041 kPa	814.76
312.96 K, 23014 kPa	815.41
312.96 K, 24003 kPa	816.04
312.96 K, 25037 kPa	816.73
322.89 K, 520 kPa	792.06
322.89 K, 1010 kPa	792.47
322.89 K, 2005 kPa	793.27
322.89 K, 3007 kPa	794.07
322.89 K, 4005 kPa	794.86
322.89 K, 5018 kPa	795.63
322.89 K, 6001 kPa	796.42
322.89 K, 7016 kPa	797.2
322.89 K, 8020 kPa	797.97
322.89 K, 8997 kPa	798.71
322.89 K, 10001 kPa	799.47
322.89 K, 11005 kPa	800.21
322.89 K, 11996 kPa	800.95
322.89 K, 13002 kPa	801.68
322.89 K, 14013 kPa	802.4
322.89 K, 15005 kPa	803.11
322.89 K, 16014 kPa	803.82
322.89 K, 17001 kPa	804.51
322.89 K, 18016 kPa	805.21
322.89 K, 19012 kPa	805.89
322.89 K, 19992 kPa	806.56
322.89 K, 21036 kPa	807.26
322.89 K, 22003 kPa	807.92
322.89 K, 23024 kPa	808.61
322.89 K, 23994 kPa	809.26
322.89 K, 25023 kPa	810
332.79 K, 493 kPa	784.29
332.79 K, 1014 kPa	784.76
332.79 K, 2006 kPa	785.61
332.79 K, 3025 kPa	786.48
332.79 K, 4011 kPa	787.28
332.79 K, 5020 kPa	788.11
332.79 K, 6003 kPa	788.91
332.79 K, 6997 kPa	789.73
332.79 K, 8009 kPa	790.54
332.79 K, 8995 kPa	791.31
332.79 K, 9996 kPa	792.12
332.79 K, 11018 kPa	792.9
332.79 K, 11995 kPa	793.66
332.79 K, 13023 kPa	794.45
332.79 K, 13999 kPa	795.19
332.79 K, 15010 kPa	795.95
332.79 K, 16028 kPa	796.68
332.79 K, 17003 kPa	797.41
332.79 K, 18040 kPa	798.14
332.79 K, 19004 kPa	798.84
332.79 K, 20035 kPa	799.59
332.79 K, 21024 kPa	800.29
332.79 K, 21993 kPa	800.97
332.79 K, 23039 kPa	801.71
332.79 K, 24015 kPa	802.4
332.79 K, 25022 kPa	803.12
342.76 K, 505 kPa	776.31
342.76 K, 997 kPa	776.77
342.76 K, 1995 kPa	777.69
342.76 K, 3011 kPa	778.59
342.76 K, 4012 kPa	779.47
342.76 K, 5011 kPa	780.34
342.76 K, 6011 kPa	781.22
342.76 K, 7003 kPa	782.03
342.76 K, 8015 kPa	782.91
342.76 K, 9000 kPa	783.73
342.76 K, 10019 kPa	784.58
342.76 K, 11020 kPa	785.4
342.76 K, 12002 kPa	786.2
342.76 K, 13016 kPa	787.02
342.76 K, 14024 kPa	787.81
342.76 K, 15002 kPa	788.59
342.76 K, 16007 kPa	789.36
342.76 K, 17037 kPa	790.15
342.76 K, 17988 kPa	790.87
342.76 K, 19037 kPa	791.66
342.76 K, 20003 kPa	792.38
342.76 K, 21015 kPa	793.14
342.76 K, 22019 kPa	793.88
342.76 K, 23039 kPa	794.62
342.76 K, 24027 kPa	795.36
342.76 K, 25028 kPa	796.1
352.71 K, 508 kPa	768.15
352.71 K, 1011 kPa	768.66
352.71 K, 1995 kPa	769.61
352.71 K, 3014 kPa	770.57
352.71 K, 3998 kPa	771.49
352.71 K, 5022 kPa	772.45
352.71 K, 6012 kPa	773.35
352.71 K, 7006 kPa	774.26
352.71 K, 8024 kPa	775.17
352.71 K, 9005 kPa	776.05
352.71 K, 10016 kPa	776.94
352.71 K, 11026 kPa	777.81
352.71 K, 12001 kPa	778.65
352.71 K, 13002 kPa	779.5
352.71 K, 14026 kPa	780.35
352.71 K, 15000 kPa	781.18
352.71 K, 16005 kPa	781.98
352.71 K, 17023 kPa	782.81
352.71 K, 18003 kPa	783.59
352.71 K, 19049 kPa	784.43
352.71 K, 20035 kPa	785.2
352.71 K, 21002 kPa	785.96
352.71 K, 21995 kPa	786.73
352.71 K, 23020 kPa	787.52
352.71 K, 24045 kPa	788.32
352.71 K, 25009 kPa	789.05
362.59 K, 517 kPa	759.7
362.59 K, 1023 kPa	760.25
362.59 K, 2005 kPa	761.26
362.59 K, 3010 kPa	762.29
362.59 K, 3998 kPa	763.28
362.59 K, 5006 kPa	764.25
362.59 K, 6013 kPa	765.23
362.59 K, 7014 kPa	766.21
362.59 K, 8007 kPa	767.16
362.59 K, 9020 kPa	768.1
362.59 K, 10006 kPa	769.02
362.59 K, 10991 kPa	769.93
362.59 K, 12025 kPa	770.87
362.59 K, 13008 kPa	771.76
362.59 K, 13998 kPa	772.62
362.59 K, 15017 kPa	773.51
362.59 K, 16000 kPa	774.37
362.59 K, 17013 kPa	775.24
362.59 K, 18032 kPa	776.11
362.59 K, 19003 kPa	776.9
362.59 K, 20030 kPa	777.77
362.59 K, 20987 kPa	778.55
362.59 K, 22033 kPa	779.4
362.59 K, 23000 kPa	780.2
362.59 K, 24031 kPa	781.02
362.59 K, 25026 kPa	781.82
